This is an account of results in ChEMBL document CHEMBL5653631, “A Potent and Selective ULK1 Inhibitor Suppresses Autophagy and Sensitizes Cancer Cells to Nutrient Stress” (iScience, 2018).

For assay [1], the target named is Serine/threonine-protein kinase pim-3 (Homo sapiens) (UniProt Q86V86). The experiment in a line: Inhibition of human recombinant PIM3 at 15 nM in presence of ATP by radiometric assay relative to control.
Assay [2] addresses Serine/threonine-protein kinase PLK3 (Homo sapiens) (UniProt Q9H4B4). The experiment in a line: Inhibition of human recombinant PLK3 at 15 nM in presence of ATP by radiometric assay relative to control.
The target of assay [3] is Ephrin type-A receptor 2 (Homo sapiens) (UniProt P29317). The assay can be described thus: Inhibition of human recombinant EphA2 at 15 nM related to control ULK1.
The target in assay [4] is Hepatocyte growth factor receptor (Homo sapiens) (UniProt P08581). The assay can be described thus: Inhibition of human recombinant MET at 15 nM related to control ULK1.
Assay [5] has as its target Serine/threonine-protein kinase 38-like (Homo sapiens) (UniProt Q9Y2H1). The experiment in a line: Inhibition of human recombinant NDR2 at 40 nM in presence of ATP by radiometric assay relative to control.
Assay [6] deals with Rho-associated protein kinase 2 (Homo sapiens) (UniProt O75116). The assay can be described thus: Inhibition of human recombinant ROCK2 at 40 nM in presence of ATP by radiometric assay relative to control.
Assay [7] has as its target T1, Serine/threonine-protein kinase TBK1 (Homo sapiens) (UniProt Q9UHD2).
T1 sequence (whole entry): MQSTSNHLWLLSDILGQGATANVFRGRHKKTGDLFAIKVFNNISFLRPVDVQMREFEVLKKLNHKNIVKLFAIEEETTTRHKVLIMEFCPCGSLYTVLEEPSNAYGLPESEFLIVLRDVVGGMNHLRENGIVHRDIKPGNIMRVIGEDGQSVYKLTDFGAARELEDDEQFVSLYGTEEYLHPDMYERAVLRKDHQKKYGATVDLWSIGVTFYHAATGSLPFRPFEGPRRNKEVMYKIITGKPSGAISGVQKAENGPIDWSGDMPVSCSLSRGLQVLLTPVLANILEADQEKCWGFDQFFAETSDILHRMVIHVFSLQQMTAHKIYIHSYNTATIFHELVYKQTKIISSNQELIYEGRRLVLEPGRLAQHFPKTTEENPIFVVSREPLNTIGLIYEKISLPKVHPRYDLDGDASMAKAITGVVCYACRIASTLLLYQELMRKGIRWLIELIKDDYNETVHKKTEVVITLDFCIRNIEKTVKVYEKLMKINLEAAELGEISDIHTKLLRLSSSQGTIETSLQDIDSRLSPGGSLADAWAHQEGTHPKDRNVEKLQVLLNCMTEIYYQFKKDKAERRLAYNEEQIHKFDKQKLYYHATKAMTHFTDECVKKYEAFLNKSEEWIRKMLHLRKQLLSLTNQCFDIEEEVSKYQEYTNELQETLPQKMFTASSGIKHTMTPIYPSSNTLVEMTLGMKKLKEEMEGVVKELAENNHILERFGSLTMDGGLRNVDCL
The experiment in a line: Inhibition of human recombinant TBK1 at 40 nM in presence of ATP by radiometric assay relative to control.

The target in assay [8] is Tyrosine-protein kinase Yes (Homo sapiens) (UniProt P07947). The experiment in a line: Inhibition of human recombinant YES at 40 nM in presence of ATP by radiometric assay relative to control.
Assay [9] concerns the target Tyrosine-protein kinase Fyn (Homo sapiens) (UniProt P06241). The experiment in a line: Inhibition of human recombinant FYN at 500 nM related to control ULK1.
Assay [10] addresses T2, Serine/threonine-protein kinase D3 (Homo sapiens) (UniProt O94806).
T2 sequence (whole entry): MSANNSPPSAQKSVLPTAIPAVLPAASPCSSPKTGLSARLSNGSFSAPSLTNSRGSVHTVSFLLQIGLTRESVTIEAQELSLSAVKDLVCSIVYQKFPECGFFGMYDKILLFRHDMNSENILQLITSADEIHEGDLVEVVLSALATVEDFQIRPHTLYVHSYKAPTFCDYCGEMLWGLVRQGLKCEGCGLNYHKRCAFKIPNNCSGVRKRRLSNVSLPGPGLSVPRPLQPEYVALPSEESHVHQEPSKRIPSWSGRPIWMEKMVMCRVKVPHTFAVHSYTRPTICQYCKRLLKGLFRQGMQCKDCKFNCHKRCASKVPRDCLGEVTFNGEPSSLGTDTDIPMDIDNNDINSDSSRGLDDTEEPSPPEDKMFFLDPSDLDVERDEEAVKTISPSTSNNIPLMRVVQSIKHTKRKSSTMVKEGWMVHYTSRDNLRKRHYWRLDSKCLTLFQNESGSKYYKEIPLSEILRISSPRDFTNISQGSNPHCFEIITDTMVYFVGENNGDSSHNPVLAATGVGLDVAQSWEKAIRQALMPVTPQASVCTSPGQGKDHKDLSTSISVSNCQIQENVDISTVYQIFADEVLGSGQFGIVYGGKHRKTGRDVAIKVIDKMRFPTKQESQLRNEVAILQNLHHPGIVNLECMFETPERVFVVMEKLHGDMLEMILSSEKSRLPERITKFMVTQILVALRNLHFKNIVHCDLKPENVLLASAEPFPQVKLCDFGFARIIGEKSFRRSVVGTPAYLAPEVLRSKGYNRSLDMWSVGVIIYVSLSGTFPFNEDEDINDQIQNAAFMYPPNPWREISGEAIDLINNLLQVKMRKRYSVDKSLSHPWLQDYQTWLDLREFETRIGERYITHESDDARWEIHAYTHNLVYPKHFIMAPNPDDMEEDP
The experiment in a line: Inhibition of human recombinant PKD3 at 500 nM related to control ULK1.

Sequence of Tyrosine-protein kinase Fyn (Homo sapiens) (P06241 2-537 limits assumed): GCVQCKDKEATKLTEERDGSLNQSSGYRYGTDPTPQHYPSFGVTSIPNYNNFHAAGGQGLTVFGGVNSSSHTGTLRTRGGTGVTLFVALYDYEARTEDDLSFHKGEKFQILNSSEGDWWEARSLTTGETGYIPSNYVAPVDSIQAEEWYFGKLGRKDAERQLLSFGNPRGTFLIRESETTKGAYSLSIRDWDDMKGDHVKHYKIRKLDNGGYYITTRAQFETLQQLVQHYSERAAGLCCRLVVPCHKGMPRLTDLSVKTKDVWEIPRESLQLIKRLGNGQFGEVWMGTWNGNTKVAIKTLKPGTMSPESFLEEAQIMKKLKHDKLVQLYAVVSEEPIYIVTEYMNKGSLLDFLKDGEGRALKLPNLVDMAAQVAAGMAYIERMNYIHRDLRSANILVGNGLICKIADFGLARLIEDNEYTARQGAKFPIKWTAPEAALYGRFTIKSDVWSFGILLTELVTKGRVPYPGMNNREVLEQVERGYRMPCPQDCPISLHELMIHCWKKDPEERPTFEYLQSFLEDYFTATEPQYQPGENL
Sequence of Tyrosine-protein kinase Yes (Homo sapiens) (P07947 2-543 limits assumed): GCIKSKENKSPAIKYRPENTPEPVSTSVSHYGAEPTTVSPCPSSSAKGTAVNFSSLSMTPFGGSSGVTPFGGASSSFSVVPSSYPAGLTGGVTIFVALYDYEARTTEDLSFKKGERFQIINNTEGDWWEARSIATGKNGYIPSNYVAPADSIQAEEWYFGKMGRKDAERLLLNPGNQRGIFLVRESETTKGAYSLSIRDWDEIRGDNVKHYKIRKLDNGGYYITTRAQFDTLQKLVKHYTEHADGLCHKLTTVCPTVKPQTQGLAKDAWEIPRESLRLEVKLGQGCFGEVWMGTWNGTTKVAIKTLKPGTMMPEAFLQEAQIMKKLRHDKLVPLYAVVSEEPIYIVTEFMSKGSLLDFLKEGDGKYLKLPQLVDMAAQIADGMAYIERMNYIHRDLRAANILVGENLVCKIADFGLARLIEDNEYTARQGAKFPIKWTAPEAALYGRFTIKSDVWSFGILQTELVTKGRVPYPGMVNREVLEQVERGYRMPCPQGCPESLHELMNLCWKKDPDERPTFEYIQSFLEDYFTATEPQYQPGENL
Sequence of Hepatocyte growth factor receptor (Homo sapiens) (P08581 whole entry, looked up): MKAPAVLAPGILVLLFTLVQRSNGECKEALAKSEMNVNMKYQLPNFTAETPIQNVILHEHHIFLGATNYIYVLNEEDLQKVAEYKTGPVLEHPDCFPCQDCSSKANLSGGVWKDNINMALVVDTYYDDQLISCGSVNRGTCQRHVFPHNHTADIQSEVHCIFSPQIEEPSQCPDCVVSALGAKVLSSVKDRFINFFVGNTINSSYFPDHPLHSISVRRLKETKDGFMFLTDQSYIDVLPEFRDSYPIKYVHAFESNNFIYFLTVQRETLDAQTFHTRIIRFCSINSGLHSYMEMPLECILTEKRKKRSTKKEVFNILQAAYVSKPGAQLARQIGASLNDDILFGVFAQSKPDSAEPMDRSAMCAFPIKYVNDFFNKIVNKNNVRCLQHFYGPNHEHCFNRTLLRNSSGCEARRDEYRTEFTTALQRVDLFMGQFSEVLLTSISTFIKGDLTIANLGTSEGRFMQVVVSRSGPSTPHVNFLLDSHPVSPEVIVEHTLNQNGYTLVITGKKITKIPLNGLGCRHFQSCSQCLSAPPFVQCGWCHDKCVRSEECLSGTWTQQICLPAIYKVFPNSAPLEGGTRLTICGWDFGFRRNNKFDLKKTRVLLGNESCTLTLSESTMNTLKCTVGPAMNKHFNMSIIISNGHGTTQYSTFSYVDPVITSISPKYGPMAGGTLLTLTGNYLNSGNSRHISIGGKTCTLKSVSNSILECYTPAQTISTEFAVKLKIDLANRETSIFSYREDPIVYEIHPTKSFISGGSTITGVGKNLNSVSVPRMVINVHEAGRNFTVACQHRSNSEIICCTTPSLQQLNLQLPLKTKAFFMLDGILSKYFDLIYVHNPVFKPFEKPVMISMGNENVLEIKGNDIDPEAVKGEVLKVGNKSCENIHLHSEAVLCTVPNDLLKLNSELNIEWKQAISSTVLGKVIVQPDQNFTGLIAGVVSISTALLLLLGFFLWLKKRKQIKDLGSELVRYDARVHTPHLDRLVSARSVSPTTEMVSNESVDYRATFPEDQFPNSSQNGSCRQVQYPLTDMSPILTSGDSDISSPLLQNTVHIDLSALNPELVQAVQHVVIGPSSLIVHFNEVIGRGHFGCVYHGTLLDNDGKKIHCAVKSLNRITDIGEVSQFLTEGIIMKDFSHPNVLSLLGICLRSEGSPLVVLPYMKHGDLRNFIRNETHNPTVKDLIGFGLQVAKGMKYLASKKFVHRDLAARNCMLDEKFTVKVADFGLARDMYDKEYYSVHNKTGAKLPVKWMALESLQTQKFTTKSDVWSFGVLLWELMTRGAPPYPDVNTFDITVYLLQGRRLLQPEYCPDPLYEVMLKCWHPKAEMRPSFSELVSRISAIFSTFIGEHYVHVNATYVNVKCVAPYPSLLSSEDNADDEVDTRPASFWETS
Sequence of Rho-associated protein kinase 2 (Homo sapiens) (O75116 whole entry, looked up): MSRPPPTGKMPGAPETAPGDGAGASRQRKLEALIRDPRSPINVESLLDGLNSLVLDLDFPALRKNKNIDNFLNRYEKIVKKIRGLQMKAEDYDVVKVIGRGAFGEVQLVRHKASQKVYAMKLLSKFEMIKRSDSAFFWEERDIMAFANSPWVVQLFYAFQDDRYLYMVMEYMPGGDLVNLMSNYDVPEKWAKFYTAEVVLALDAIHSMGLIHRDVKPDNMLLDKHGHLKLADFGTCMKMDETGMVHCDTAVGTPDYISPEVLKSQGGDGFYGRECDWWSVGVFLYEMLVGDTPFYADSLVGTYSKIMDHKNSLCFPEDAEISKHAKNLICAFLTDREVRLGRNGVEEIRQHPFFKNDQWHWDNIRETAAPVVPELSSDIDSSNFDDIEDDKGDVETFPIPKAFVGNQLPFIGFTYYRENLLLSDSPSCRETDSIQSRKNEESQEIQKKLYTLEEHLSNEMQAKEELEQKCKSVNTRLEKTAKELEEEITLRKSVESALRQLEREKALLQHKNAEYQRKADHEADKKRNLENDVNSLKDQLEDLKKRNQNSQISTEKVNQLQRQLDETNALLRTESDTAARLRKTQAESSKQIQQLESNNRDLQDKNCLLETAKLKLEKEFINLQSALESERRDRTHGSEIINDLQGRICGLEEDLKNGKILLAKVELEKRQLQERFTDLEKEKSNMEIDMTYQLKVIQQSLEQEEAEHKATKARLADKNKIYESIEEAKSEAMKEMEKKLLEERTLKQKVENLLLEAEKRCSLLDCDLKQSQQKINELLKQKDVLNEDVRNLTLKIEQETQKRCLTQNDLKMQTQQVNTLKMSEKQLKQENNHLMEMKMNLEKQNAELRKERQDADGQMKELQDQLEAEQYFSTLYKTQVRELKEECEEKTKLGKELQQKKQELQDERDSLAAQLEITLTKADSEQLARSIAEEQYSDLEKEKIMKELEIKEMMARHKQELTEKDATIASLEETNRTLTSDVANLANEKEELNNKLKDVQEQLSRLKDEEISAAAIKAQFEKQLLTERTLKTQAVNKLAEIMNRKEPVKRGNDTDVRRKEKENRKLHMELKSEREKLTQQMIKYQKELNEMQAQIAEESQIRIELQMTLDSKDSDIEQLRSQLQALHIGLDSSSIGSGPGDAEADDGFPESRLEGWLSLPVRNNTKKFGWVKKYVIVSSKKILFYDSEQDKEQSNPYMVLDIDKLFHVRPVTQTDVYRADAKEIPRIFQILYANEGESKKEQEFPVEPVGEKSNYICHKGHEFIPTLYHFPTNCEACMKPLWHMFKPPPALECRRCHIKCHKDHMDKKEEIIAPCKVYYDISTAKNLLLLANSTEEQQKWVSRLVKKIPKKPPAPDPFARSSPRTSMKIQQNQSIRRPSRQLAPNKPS
Sequence of Serine/threonine-protein kinase PLK3 (Homo sapiens) (Q9H4B4 whole entry, looked up): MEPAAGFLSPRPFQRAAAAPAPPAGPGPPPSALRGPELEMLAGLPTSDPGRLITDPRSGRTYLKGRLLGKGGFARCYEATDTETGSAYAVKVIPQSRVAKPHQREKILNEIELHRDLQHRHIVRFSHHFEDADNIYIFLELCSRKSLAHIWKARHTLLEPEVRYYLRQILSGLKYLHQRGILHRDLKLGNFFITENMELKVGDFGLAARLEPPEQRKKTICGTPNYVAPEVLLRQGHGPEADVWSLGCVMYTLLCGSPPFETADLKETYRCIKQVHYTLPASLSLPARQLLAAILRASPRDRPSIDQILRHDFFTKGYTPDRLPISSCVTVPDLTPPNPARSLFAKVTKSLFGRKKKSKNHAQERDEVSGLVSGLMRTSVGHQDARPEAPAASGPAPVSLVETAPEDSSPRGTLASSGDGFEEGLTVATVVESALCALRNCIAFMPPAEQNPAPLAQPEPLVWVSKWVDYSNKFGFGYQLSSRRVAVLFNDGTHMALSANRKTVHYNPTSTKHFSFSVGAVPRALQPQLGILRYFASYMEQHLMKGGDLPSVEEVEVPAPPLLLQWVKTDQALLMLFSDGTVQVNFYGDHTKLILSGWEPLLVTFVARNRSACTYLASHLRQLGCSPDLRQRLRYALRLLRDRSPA

Regarding `CC(C)[C@H](NC(=O)c1cc(-c2cnn3cc(-c4ccc(OCCN5CCCCC5)cc4)cnc23)cs1)C(F)(F)F`, the inhibition in assay [1] worked out at 2%; in [2], 3%. Further, the fold change (FC) in [3] and in [4] was 0 each time.

On to `O=C(N[C@@H](C1CC1)C(F)(F)F)c1cc(-c2cnn3cc(-c4ccc(F)cc4)cnc23)cs1`, for which the inhibition in assay [5] came out at 0%; in assay [6], 2%; in assay [7] it was 26%; in assay [8], 23%.

As for `CNC(=O)c1ccccc1Oc1nc(Nc2cc(OC)c(OC)c(OC)c2)ncc1Br`, the fold change (FC) in assay [9] was 0.26; in [10], 0.
